Key:
adult female rats = conditions: single intranasal dose; 200-gram rat
[1] = tested on: subjects with MDD at imminent risk for suicide; experiment: Beck Scale for Suicidal Ideation (BSS) ([…]2001); assay type: in vivo, human
Procedure: The BSS is a 21-item self-reported instrument to detect and measure the severity of suicidal ideation in adults and adolescents aged 17 years and older. The BSS total score represents the severity of suicide ideation, and it is calculated by summing the ratings of the first 19 items; the total score ranges from 0 to 38, with a higher score representing greater suicide ideation. Increasing scores reflect increases in suicidal risk.

[2] = tested on: transgenic (Tg.rasH2) mice; experiment: 6-month study in transgenic (Tg.rasH2) mice; assay type: in vivo, mouse; conditions: once-daily subcutaneous up to 75 mg/kg/day (reduced to 40 mg/kg/day during week 17); 6 months
[3] = tested on: subjects with MDD at imminent risk for suicide; experiment: MADRS suicide item ([…]2001); assay type: in vivo, human; conditions: 84 mg; Day 1: 4-hours postdose, Day 2 (DB), End Point (DB); two-sided level 0.20
From the text: • a. Changes from baseline to Day 2 and Day 25 for the MADRS total score • b. Changes from baseline to Day 1 4-hours postdose, Day 2 and Day 25 for the MADRS Suicide Item • c. Changes from baseline to Day 1 4-hours postdose, Day 2, and Day 25 for the clinical global judgment of suicide risk from the Suicide Ideation and Behavior Assessment Tool (SIBAT) • d. Sustained response (Onset of Clinical Response) defined as at least 50% reduction from baseline in MADRS total score with onset on Day 1 that is maintained through the end of the double-blind phase (Day 25) • e. Changes from baseline to Day 1 4-hours postdose, Day 2, and Day 25 for the Beck Scale for Suicidal Ideation (BSS) • f. Changes from baseline to Day 1 4-hours postdose and Day 25 for the Beck Hopelessness Scale
Results of the change from baseline over time for the suicide item from the MADRS assessment can be found in Attachment 1.

[4] = tested on: patients with treatment-resistant depression (TRD); experiment: CADSS (Example 7); conditions: human, in vivo, other: intranasal
Procedure: (§1) Adverse events were monitored throughout the study. Other safety assessments (i.e., laboratory tests, vital signs, physical examination) were performed at pre-specified time points. Vital signs, the Clinician Administered Dissociative States Scale (CADSS; Bremner, “Measurement of dissociative states with the clinician-administered dissociative states scale (CADSS)”, J. Traumatic Stress, 1998, 11(1):125-136), and the 4-item positive symptom subscale from the Brief Psychiatric Rating Scale (BPRS; Overall, “The Brief Psychiatric Rating Scale. Psychological Reports”, 1962, 10:799-812) were assessed pre-dose, at 40 minutes, and 2 hours post-dose.

subjects with TRD [5] = conditions: post dose
Procedure: (§3) The Clinician Administered Dissociative States Scale (CADSS) was measured prior to the start of each dose, at 40 minutes, and 1.5 hours postdose.

[6] = Pre- and postnatal study, intranasal esketamine, pregnant rats; assay type: in vivo, rat; conditions: female, rat, in vivo, inhaled or intranasal; intranasal; pregnancy and lactation; read-out: NOAEL for maternal toxicity and decreased motor activity during the postweaning period
Procedure: (§2) This sensory/motor developmental measure was tested starting on postnatal day (PND) 9, and the effect normalized by PND 19 in treatment groups as compared with PND 14 for the majority of the control animals. There is no NOAEL for this delay in sensory/motor response observed in pups during the preweaning period.

pregnant rats and pups = experiment: as above; assay type: in vivo, rat
Procedure: as §2

[7] = tested on: elderly subjects with TRD; conditions: post dose
Procedure: as §3

subjects with TRD [8] = assay type: in vivo, human; conditions: post dose
Procedure: Transient blood pressure increases peaked for the esketamine group at approximately 40 minutes post dose and returned closer to predose levels by 1.5 hours post dose.

[9] = single dose; 72 mg
Procedure: This study includes a single dose and 14-day repeated dose neurotoxicity studies with intranasally administered esketamine in female rats 12 to 14 weeks of age. These studies were conducted to investigate whether single or repeated intranasal administrations of esketamine induced neurodegenerative changes in the rat brain. The study results were used to estimate an esketamine exposure-based safety margin compared with the maximum dose of esketamine administered intranasally to depressed adult patients in clinical trials.
The vehicle- and the 36 and 54 mg-dosed groups consisted of 24 animals per group, while the 72 mg-dosed and positive control groups involved 30 animals per group. Four satellite animals were added to the esketamine HCl-dosed groups of main study animals for toxicokinetic (TK) purposes. In these animals the plasma exposure to esketamine was measured on the day of dosing at various time points up to and including 24 hours after the first instillation.

[10] = tested on: patients with treatment-resistant depression (TRD); experiment: Vital signs: blood pressure and heart rate (Example 7); assay type: in vivo, human; conditions: post-dose
Procedure: as §1

[11] = esketamine 84 mg minus placebo, ANCOVA LOCF
[12] = esketamine 84 mg, LOCF, ITT, N = 34
[13] = esketamine 84 mg, LOCF, ITT, N = 34, negative change = improvement
[14] = esketamine 84 mg, predose Day 1, ITT, N = 34

SMILES: CN[C@]1(c2ccccc2Cl)CCCCC1=O [esketamine, (S)-2-(2-chlorophenyl)-2-(methylamino)cyclohexanone]
- Highest dose equivalent with no findings of neuronal vacuolation in the brain (adult female rats): 45 mg/kg
- BSS total score: change vs placebo ([1]; 84 mg, Day 1: 4-hours postdose, Day 2 (DB), End Point (DB)): no statistically significant differences
- BSS total score, change to Day 1 (DB): 4H, Diff. of LS Means (SE) [1, 11]: −2.3 (2.29)
- BSS total score, change to Day 2 (DB), Diff. of LS Means (SE) [1, 11]: −1.9 (2.30)
- BSS total score, change to End Point (DB), Diff. of LS Means (SE) [1, 11]: −1.7 (2.15)
- BSS total score, Day 2 (DB), Median (Range) [1, 12]: 13.0 (0; 34)
- BSS total score, End Point (DB), Mean (SD) [1, 12]: 4.7 (9.03)
- BSS total score, End Point (DB), Median (Range) [1, 12]: 0.0 (0; 34)
- BSS total score, Change from Baseline to Day 1 (DB): 4H, Median (Range) [1, 13]: −8.0 (−33; 8)
- BSS total score, Change from Baseline to End Point (DB), Median (Range) [1, 13]: −21.0 (−33; 8)
- BSS total score, Baseline (DB), Mean (SD) [1, 14]: 24.0 (5.45)
- BSS total score, Baseline (DB), Median (Range) [1, 14]: 25.0 (8; 33)
- Incidence of tumors [2]: did not increase the incidence of tumors
- MADRS suicide item: change from baseline vs placebo [3]: Statistically significant differences favoring esketamine
- Perceptual changes/dissociative symptoms (CADSS): time of peak [4]: 30 to 40 min
- Dissociative/perceptual change symptoms (CADSS) resolved by (subjects with TRD [5]): ≤ 1.5 h
- NOAEL [6]: 4.5 mg/kg/day
- AUC exposure, multiple of the MRHD of 84 mg/day (pregnant rats and pups; 4.5 mg/kg/day intranasal): 0.07 times
- AUC exposure, multiple of the MRHD of 84 mg/day (pregnant rats and pups; 15 mg/kg/day intranasal): 0.5 times
- AUC exposure, multiple of the MRHD of 84 mg/day (pregnant rats and pups; 45 mg/kg/day intranasal): 0.7 times
- Dissociative and perceptual change symptoms (CADSS) resolved by [7]: ≤ 1.5 h
- Blood pressure returned closer to predose levels by (subjects with TRD [8]): ≤ 1.5 h
- Time of peak of transient blood pressure increases (subjects with TRD [8]): approximately 40 minutes
- AUC-based safety margin compared with the maximum 84 mg clinical dose [9]: ~86 fold
- Cmax-based safety margin compared with the maximum 84 mg clinical dose [9]: approximately 60 fold
- Elevated blood pressure returned to the normal range by [10]: ≤ 2 h

Source: US11980596B2 (priority 2017, dated 2024)
